Entries after “also recorded” stand apart in the source; their conditions may differ. Where two headings read alike, the source gives them in different places.
What was measured:
mGAT2 = molecular target: T1, mGAT2 (Mus musculus, UniProt P31649); assay: [3H]GABA uptake at mGAT2 stably expressed in HEK-293 cells; format: cell-based
T1 construct: expressed in transfected cells
Experimental: (§1) The HEK-293 and Flp-In CHO cell lines stably expressing mouse (m) and human (h) GATs, respectively, have been described previously and were cultured accordingly. The tsA201 cell line was used for transient expression while the MDCK II cell line express BGT1 endogenously. Both cell lines were cultured as described. tsA201 cells were transfected with DNA constructs (8 μg per 10 cm dish if not otherwise mentioned) using 40 μL PolyFect transfection reagent according to the manufacturer’s protocol (Qiagen, Venlo, Netherlands). The DNA constructs encoding hBGT1, hGAT1-3 [36], the mutated constructs hBGT1 Q299 and hGAT3 L314Q described previously, and hBGT Y453A were synthesized and sequence validated by Genscript (NJ, USA).
(§2) The [^3H]GABA competition uptake assay was performed as previously described. A minor change, however, was introduced for uptake in MDCK II cells, in which 100 nM [^3H]GABA was used for a 15 min incubation period at 37 °C instead of 30 nM [^3H]GABA and 3 min incubation. Studies related to the inhibition curves with GABA and BPDBA at hBGT1 were obtained both with and without the presence of 10 μM ATP during the [^3H]GABA uptake assay.
(§3) The [^3H]GABA uptake data was normalized to the percentage of total uptake in the individual experiments in the presence of the lowest compound concentration or no compound present. […]

CF-1 mice = assay: s.c.PTZ seizure threshold test; format: in vivo, mouse; conditions: 150 mg/kg i.p.
Source text: Male audiogenic-susceptible (AGS) Frings mice were obtained from an in-house breeding facility at the University of Utah (Salt Lake City, UT, USA). Male CF-1 mice for the maximal electroshock (MES) test and the subcutaneous pentylenetetrazol (s.c.PTZ) seizure threshold test were purchased from Charles River (Kingston, WA, USA). All mice were housed in a temperature, humidity, and light (on at 6:00 AM) controlled facility at the University of Utah with access to ad libitum food and water except during testing. All procedures were carried out at the University of Utah in concordance with the National Institutes of Health Guidelines for the Care and Use of Laboratory Animals and under approval from the University of Utah’s Institutional Animal Care and Use Committee. The mice were euthanized in accordance with Public Health Service policies on the humane care of laboratory animals. SBV2-114 was tested for its ability to prevent a minimal clonic seizure in the s.c.PTZ seizure test, which is a test of generalized myoclonic seizures. […] At the TPE, mice were challenged with a s.c. dose of PTZ (85 mg/kg) and observed for 30 min for the presence or absence of a minimal clonic seizure characterized by minimal forelimb clonus and/or vibrissae twitching. Mice not displaying this phenotypic behaviour were considered protected.

hGAT3 [1] = molecular target: T2, hGAT3 (Homo sapiens, UniProt P48066); assay: [3H]GABA uptake at hGAT3 stably expressed in CHO cells; format: cell-based; conditions: N=3
T2 construct: expressed in transfected cells
T2 sequence (P48066 1-632): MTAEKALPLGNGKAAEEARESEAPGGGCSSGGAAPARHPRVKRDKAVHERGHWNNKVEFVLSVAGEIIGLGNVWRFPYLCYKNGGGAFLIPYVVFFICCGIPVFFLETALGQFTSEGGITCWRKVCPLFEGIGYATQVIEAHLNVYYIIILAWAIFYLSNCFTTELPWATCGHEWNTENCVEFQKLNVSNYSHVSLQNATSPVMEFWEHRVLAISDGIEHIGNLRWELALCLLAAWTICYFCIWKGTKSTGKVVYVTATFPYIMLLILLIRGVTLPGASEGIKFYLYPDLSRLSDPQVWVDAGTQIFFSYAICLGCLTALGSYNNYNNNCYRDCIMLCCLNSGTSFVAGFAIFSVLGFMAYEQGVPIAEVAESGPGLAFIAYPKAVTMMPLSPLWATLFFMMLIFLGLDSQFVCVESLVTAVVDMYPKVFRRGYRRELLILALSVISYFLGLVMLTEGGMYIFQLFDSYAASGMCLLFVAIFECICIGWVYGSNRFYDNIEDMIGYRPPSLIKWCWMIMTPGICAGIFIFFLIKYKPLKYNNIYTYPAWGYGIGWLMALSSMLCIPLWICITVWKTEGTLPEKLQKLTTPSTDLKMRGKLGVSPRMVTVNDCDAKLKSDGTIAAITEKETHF
Experimental: as §1, §2
(§4) The [^3H]GABA uptake data was normalized to the percentage of total uptake in the individual experiments in the presence of the lowest compound concentration or no compound present. Data presented is the pooled data of at least three independent experiments with three technical replicates. Concentration–response curves (CRCs) were fitted with GraphPad Prism (version 8.2.1, Yosemite, GraphPad Software, San Diego, CA, USA) by non-linear regression to the sigmoidal concentration response model: Y=Bottom+(Top-Bottom)/1+10^LogIC50-X∗nH where Top is the Top plateau, Bottom is the Bottom plateau, X is the logarithm of the concentration of the compound, LogIC50 is the concentration giving a response halfway between Top and Bottom,and nH is the Hill slope.
(§5) The best fit for CRCs obtained with the [^3H]GABA uptake assay was identified by the extra-sum-of-squares F test (for convenience referred to as F test).

GABAA rat brain = assay: NIMH PDSP radioligand binding, GABAA rat brain; conditions: 10 μM; radioligand [3H]muscimol; n=4
Experimental: IC50 values in μM (Ki μM)^a. The targets in bold were inhibited by >35% at 10 μM.

mGAT1 = molecular target: T3, mGAT1 (Mus musculus, UniProt P31648); assay: [3H]GABA uptake at mGAT1 stably expressed in HEK-293 cells; format: cell-based
T3 construct: expressed in transfected cells
Experimental: as §1, §2, §4, §5

hBGT1 Y453A = molecular target: T4, hBGT1 Y453A (Homo sapiens, UniProt P48065, Y453A); assay: [3H]GABA uptake at hBGT1 Y453A mutant in tsA201 cells; format: cell-based; conditions: data not shown
T4 construct: host or cells: tsA201 (transient)
Experimental: as §1, §2, §3

5-HT5A = molecular target: T5, 5-HT5A (Homo sapiens, UniProt P47898); assay: NIMH PDSP radioligand binding, 5-HT5A; conditions: radioligand [3H]LSD, n=4
T5 construct: purchased NIMH Psychoactive Drug Screening Program (PDSP)

M1 = molecular target: T6, M1 (Homo sapiens, UniProt P11229); assay: NIMH PDSP radioligand binding, M1
T6 construct: purchased NIMH Psychoactive Drug Screening Program (PDSP)

5-HT1D = molecular target: T7, 5-HT1D (Homo sapiens, UniProt P28221); assay: NIMH PDSP radioligand binding, 5-HT1D; conditions: radioligand [3H]GR125743, n=4
T7 construct: purchased NIMH Psychoactive Drug Screening Program (PDSP)

hGAT3 [2] = molecular target: T2, hGAT3; assay: [3H]GABA uptake at hGAT3 transiently expressed in tsA201 cells; format: cell-based; conditions: 30 nM [3H]GABA, 3 min, F test P < 0.05
Experimental: as §1, §2, §3

DAT = molecular target: T8, DAT (Homo sapiens, UniProt Q01959); assay: NIMH PDSP radioligand binding, DAT; conditions: radioligand [3H]WIN35428, n=4
T8 construct: purchased NIMH Psychoactive Drug Screening Program (PDSP)
T8 sequence (Q01959 whole entry): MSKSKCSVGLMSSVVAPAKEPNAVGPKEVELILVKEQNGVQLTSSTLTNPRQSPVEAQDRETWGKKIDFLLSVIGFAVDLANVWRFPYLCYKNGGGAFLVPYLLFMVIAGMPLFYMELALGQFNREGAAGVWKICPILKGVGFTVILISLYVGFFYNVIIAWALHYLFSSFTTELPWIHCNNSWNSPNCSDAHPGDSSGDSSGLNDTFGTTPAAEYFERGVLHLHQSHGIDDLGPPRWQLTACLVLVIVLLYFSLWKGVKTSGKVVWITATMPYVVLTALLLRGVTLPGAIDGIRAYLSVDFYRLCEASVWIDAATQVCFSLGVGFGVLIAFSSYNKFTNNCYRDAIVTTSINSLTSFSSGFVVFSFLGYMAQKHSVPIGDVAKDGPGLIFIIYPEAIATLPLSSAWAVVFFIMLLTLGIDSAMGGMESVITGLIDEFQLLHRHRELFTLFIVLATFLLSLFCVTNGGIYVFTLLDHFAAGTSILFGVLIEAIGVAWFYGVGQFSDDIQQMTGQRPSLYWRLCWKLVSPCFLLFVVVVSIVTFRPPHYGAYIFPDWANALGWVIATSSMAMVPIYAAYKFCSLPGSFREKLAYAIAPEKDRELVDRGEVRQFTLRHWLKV

T1 sequence (P31649 whole entry): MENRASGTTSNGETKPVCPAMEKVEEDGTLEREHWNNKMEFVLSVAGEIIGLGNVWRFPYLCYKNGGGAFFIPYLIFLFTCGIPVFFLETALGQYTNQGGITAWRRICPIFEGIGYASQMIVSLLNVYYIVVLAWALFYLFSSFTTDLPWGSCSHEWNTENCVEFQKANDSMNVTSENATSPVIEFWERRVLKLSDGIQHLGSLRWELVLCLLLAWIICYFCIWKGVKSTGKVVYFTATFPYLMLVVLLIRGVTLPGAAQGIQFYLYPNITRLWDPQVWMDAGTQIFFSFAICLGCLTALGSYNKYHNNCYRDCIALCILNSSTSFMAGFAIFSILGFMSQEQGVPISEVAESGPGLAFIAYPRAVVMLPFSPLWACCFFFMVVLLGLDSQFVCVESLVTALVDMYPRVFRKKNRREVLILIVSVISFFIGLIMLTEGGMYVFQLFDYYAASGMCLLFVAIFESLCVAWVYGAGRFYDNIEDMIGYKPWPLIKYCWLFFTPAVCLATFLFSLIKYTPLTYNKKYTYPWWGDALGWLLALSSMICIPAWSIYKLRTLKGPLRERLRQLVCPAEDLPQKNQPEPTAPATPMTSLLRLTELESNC
T4 sequence (P48065 whole entry Y453A): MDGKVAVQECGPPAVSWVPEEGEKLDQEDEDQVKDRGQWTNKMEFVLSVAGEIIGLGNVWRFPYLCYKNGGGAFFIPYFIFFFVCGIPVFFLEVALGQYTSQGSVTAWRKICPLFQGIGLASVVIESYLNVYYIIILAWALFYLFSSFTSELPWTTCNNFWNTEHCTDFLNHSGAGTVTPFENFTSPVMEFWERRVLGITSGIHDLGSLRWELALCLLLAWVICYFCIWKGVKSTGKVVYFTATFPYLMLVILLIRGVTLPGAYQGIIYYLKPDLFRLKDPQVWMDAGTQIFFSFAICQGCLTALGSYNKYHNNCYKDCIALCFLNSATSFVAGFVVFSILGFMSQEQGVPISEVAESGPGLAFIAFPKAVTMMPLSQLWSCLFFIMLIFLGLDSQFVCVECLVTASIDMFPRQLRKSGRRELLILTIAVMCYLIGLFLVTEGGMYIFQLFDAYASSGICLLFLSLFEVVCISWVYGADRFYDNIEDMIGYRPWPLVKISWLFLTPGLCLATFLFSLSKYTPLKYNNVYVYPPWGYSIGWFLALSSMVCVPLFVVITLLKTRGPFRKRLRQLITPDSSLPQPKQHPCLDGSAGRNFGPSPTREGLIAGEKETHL
T5 sequence (P47898 whole entry): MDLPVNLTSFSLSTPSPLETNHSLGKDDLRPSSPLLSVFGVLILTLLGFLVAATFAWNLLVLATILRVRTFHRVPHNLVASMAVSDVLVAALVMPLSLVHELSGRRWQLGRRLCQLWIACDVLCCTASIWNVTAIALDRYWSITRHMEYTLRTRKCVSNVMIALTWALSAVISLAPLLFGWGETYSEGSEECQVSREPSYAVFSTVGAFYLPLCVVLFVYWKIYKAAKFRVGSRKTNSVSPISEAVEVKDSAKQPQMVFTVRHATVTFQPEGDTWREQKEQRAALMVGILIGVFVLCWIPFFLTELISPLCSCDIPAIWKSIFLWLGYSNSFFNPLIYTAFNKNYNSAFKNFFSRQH
T7 sequence (P28221 whole entry): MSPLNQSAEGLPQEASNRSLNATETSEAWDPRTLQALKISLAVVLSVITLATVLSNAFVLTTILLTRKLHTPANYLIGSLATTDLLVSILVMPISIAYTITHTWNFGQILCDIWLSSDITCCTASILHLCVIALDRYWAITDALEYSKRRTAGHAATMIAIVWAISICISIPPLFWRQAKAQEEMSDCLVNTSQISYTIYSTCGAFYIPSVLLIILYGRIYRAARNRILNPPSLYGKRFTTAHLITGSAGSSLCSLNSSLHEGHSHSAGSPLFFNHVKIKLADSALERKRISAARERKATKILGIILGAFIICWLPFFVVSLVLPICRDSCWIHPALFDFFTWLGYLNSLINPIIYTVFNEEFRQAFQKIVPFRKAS
T6 sequence (P11229 whole entry): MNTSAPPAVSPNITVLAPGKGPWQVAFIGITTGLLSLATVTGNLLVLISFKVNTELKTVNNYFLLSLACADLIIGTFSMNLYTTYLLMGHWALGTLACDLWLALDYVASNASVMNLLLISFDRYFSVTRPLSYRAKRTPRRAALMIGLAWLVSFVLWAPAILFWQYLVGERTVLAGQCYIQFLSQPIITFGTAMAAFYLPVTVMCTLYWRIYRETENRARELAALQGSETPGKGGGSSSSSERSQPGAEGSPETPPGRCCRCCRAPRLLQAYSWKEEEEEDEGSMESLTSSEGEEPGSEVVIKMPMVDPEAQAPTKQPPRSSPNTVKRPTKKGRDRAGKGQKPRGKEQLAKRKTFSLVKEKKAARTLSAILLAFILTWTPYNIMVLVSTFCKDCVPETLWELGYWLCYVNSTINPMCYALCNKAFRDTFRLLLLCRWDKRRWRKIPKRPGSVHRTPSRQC

Cc1ccsc1C(=CCCN(C)[C@H]1CCCC[C@H]1C(=O)O)c1sccc1C [SBV2-114, (1R,2S)-2-((4,4-bis(3-methylthiophen-2-yl)but-3-en-yl)(methyl)amino)cyclohexanecarboxylic acid]
IC50 (mGAT2): > 1000 µM
Fit (mGAT2; preferred model, N=3): Ambiguous
effect on s.c.PTZ-induced seizures (CF-1 mice): did not block s.c.PTZ-induced seizures
#Protected/#Tested (CF-1 mice; 30 min, PTZ 85 mg/kg s.c.): 0/8
Frac (hGAT3 [1]; biphasic fit, CHO): 0.09
IC50 (hGAT3 [1]; biphasic fit, CHO, read-out: IC50, high affinity component): 2.09 µM
Fit (hGAT3 [1]; preferred model): Biphasic
IC50 (hGAT3 [1]; read-out: IC50, low affinity component, biphasic fit, CHO): 603 µM
% inhibition (GABAA rat brain): -1.5%
IC50 (mGAT1; ambiguous fit, N=1 experiment, read-out: IC50): > 1000 µM
Frac (mGAT1; biphasic fit, N=1 experiment): 0.14
IC50 (mGAT1; biphasic fit, N=1 experiment, read-out: pIC50, high affinity component (converted)): 0.417 µM
IC50 (mGAT1; monophasic fit, N=1 experiment, read-out: IC50): > 1000 µM
Fit (mGAT1; preferred model per experiment, F test): Biphasic; also recorded: Monophasic; also recorded: Ambiguous
IC50 (mGAT1; read-out: IC50, low affinity component, biphasic fit, N=1 experiment): 755 µM
activity at hBGT1 Y453A (hBGT1 Y453A): did not show the expected decrease in activity
inhibition at 10 µM (5-HT5A): 36.6%
inhibition at 10 µM (M1): 18.3%
inhibition at 10 µM (5-HT1D): 19.6%
preferred fit (hGAT3 [2]): biphasic fit
inhibition at 10 µM (DAT): 36.9%

Reference: PMC7297817, “Pharmacological Characterization of a Betaine/GABA Transporter 1 (BGT1) Inhibitor Displaying an Unusual Biphasic Inhibition Profile and Anti-seizure Effects” (Neurochemical Research, 2020)
